Experimental data: patent US10798942B2, “Abiotic stress tolerance” (SYNGENTA PARTICIPATIONS AG, priority 2016, dated 2020)

Tests used:
rice plants [1] = assay: Further field trials 2016, rice variety ADT45 (7 trials); format: in vivo, Oryza sativa L.; details: 10 g AI/ha; for Average yield increase compared to UTC (%): 7 trials 2016; for Yield at 14% MC (kg/ha): 7 trials 2016, mean daily min 25.13° C., max 34.13° C., UTC 6512
Description: (§1) Rice (Oryza sativa L.) of the local varieties ADT43, ADT45 and NK5251 were mechanically transplanted at four plants per hill with a plant spacing of 16 cm and a row spacing of 30 cm. All trials were performed in good level of water management. Fertilizer was applied in accordance with the best local practice across the trial area. Commercial treated seeds (no neonicotinoids as seed treatments) were used. Weed control was according to the best local practice in order to provide excellent weed control. Foliar fungicides and insecticides were applied according to common practice (no products that contain neonicotinoids or strobilurins). The trial design was a randomized bloc design. Plot size was 40 m^2 (4 m width [12 rows] by 10 m row length). Each trial had four replicates. In total, eleven trials were conducted. The compound of formula (Ia) was applied at a rate of 10 g ai/ha with small-plot hand-held boom sprayer. Application of the compound was as broadcast foliar spray in close proximity to leaf/canopy surface (25-40 cm distance from the crop). The used spray volumes were between 250 L/ha and 500 L/ha. Application was done either at panicle initiation (BBCH 30), at panicle formation (BBCH 32), at spikelet differentiation (BBCH 35), at meiosis (BBCH 39) or at heading (BBCH 51). In some experiments, the compound was applied twice (2×10 g ai/ha) at consecutive growth stages (i.e., BBCH 30+32, BBCH 32+35, BBCH 35+39, and BBCH 39+51). Tolerance to heat stress was assessed by measuring the following yield components: number of panicles per area, number of grains per panicle, percentage of ripened (filled) grains, number of tillers per area, percentage of productive tillers, grain yield per area at 14% moisture and thousand grain weight (TGVV). Further trials were conducted in the Tamil Nadu rice production area (India) in 2016 using the protocol as described above using rice variety ADT45, with treatment timings of panicle initiation (BBCH 30), panicle formation (BBCH 32), spikelet differentiation (BBCH 35) and meiosis (BBCH 39) only. The compound of formula (Ia) was applied at a rate of 10 g Al/ha. Grain yield was measured at 14% moisture content (MC).

rice plants [2] = assay: Multi-year analysis for 2015-2016 of field trials (17 trials); format: in vivo, Oryza sativa L.; details: 2015-2016, 17 trials; for Thousand grain weight (g/1000 seed): UTC 17.01; for Empty spikelets (number per 12 rice hills): UTC 5636; for Yield at 14% MC (kg/ha): UTC 6318
Description: as §1

With `COc1cccc(Nc2nc(F)nc3[nH]cnc23)c1` [formula (Ia)] the “Average yield increase compared to UTC (%)” value (“Average yield increase … (%)” below) (rice plants [1]; BBCH 30 at application) was “+3.5%”, the “Yield at 14% MC (kg/ha)” value (rice plants [1]; BBCH 30 at application) was 6741 kg/ha and the “Average yield increase … (%)” value (rice plants [1]; BBCH 32 at application) was “+4.7%”. For the same compound, the “Yield at 14% MC (kg/ha)” value (rice plants [1]; BBCH 32 at application) was 6820 kg/ha, the “Average yield increase … (%)” value (rice plants [1]; BBCH 35 at application) was “+6.4%” and the “Yield at 14% MC (kg/ha)” value (rice plants [1]; BBCH 35 at application) was 6931 kg/ha. For the same compound, the “Average yield increase … (%)” value (rice plants [1]; BBCH 39 at application) was “+3.6%”, the “Yield at 14% MC (kg/ha)” value (rice plants [1]; BBCH 39 at application) was 6757 kg/ha and the “Empty spikelets, % change compared to UTC” value (“Empty spikelets, % change” for short) (rice plants [2]; BBCH 30 at application) was −12.5%. For the same compound, the “Thousand grain weight, % change compared to UTC” value (“Thousand grain weight, % change” for short) (rice plants [2]; BBCH 30 at application) was “+1.3%”, the “Yield at 14% MC, % change compared to UTC” value (shortened to “Yield at 14% MC, % change”) (rice plants [2]; BBCH 30 at application) was “+4.1%” and the “Thousand grain weight (g/1000 seed)” value (rice plants [2]; BBCH 30 at application) was 17.24 g/1000 seed. For the same compound, the “Empty spikelets (number per 12 rice hills)” value (rice plants [2]; BBCH 30 at application) was 4927 number per 12 rice hills, the “Yield at 14% MC (kg/ha)” value (rice plants [2]; BBCH 30 at application) was 6583 kg/ha and the “Empty spikelets, % change” value (rice plants [2]; BBCH 32 at application) was −9.2%. The “Thousand grain weight, % change” value (rice plants [2]; BBCH 32 at application) was “+1.4%”, the “Yield at 14% MC, % change” value (rice plants [2]; BBCH 32 at application) was “+6.5%” and the “Thousand grain weight (g/1000 seed)” value (rice plants [2]; BBCH 32 at application) was 17.25 g/1000 seed. For the same compound, the “Empty spikelets (number per 12 rice hills)” value (rice plants [2]; BBCH 32 at application) was 5115 number per 12 rice hills, the “Yield at 14% MC (kg/ha)” value (rice plants [2]; BBCH 32 at application) was 6727 kg/ha and the “Empty spikelets, % change” value (rice plants [2]; BBCH 35 at application) was −7.6%. For the same compound, the “Thousand grain weight, % change” value (rice plants [2]; BBCH 35 at application) was “+1.3%”, the “Yield at 14% MC, % change” value (rice plants [2]; BBCH 35 at application) was “+6.3%” and the “Thousand grain weight (g/1000 seed)” value (rice plants [2]; BBCH 35 at application) was 17.23 g/1000 seed. The “Empty spikelets (number per 12 rice hills)” value (rice plants [2]; BBCH 35 at application) was 5206 number per 12 rice hills, the “Yield at 14% MC (kg/ha)” value (rice plants [2]; BBCH 35 at application) was 6713 kg/ha and the “Empty spikelets, % change” value (rice plants [2]; BBCH 39 at application) was −8.3%. The “Thousand grain weight, % change” value (rice plants [2]; BBCH 39 at application) was “+1.4%”, the “Yield at 14% MC, % change” value (rice plants [2]; BBCH 39 at application) was “+5.2%” and the “Thousand grain weight (g/1000 seed)” value (rice plants [2]; BBCH 39 at application) was 17.25 g/1000 seed. The “Empty spikelets (number per 12 rice hills)” value (rice plants [2]; BBCH 39 at application) was 5170 number per 12 rice hills and the “Yield at 14% MC (kg/ha)” value (rice plants [2]; BBCH 39 at application) was 6643 kg/ha.
